Read-outs that look alike come from different tables or passages of the source.
What was measured:
p110α/p85α = p110α/p85α (Homo sapiens (Human), UniProt P42336); assay: PI 3-Kinase (human) HTRF assay, p110α/p85α; type: biochemical
p110γ = p110γ (Homo sapiens (Human), UniProt P48736); assay: PI 3-Kinase (human) HTRF assay, p110γ; type: biochemical
[1] = in vitro, read-out: PI3K α IC50
[2] = in vitro, read-out: PI3K γ IC50

p110α/p85α, sequence (P42336 whole entry): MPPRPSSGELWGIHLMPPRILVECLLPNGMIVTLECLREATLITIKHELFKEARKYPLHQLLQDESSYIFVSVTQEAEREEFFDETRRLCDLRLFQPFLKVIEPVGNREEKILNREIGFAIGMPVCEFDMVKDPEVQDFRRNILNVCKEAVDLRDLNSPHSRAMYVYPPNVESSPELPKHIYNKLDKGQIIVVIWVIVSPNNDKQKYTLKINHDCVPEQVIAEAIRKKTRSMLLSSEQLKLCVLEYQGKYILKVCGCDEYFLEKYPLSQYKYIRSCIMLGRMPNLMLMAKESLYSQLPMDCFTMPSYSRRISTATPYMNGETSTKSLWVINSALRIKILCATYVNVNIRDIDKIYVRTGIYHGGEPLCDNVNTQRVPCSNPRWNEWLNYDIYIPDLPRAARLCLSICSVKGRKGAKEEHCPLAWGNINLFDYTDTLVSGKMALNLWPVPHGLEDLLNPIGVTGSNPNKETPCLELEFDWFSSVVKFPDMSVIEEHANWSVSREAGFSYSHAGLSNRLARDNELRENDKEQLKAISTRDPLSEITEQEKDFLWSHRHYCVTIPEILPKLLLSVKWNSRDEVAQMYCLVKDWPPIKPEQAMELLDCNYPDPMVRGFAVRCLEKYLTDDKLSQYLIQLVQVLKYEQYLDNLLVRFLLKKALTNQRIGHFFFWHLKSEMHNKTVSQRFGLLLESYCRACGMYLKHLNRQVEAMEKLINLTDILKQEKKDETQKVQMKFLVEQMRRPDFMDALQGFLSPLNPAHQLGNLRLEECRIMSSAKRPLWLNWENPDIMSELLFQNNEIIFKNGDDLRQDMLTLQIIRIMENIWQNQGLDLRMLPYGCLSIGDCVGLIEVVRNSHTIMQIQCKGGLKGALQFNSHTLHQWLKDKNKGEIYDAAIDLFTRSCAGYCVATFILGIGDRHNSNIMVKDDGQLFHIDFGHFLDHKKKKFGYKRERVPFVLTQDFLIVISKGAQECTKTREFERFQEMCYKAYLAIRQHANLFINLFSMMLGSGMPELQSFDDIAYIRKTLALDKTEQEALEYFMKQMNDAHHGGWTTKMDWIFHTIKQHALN
p110α/p85α, sequence (P27986 whole entry partner): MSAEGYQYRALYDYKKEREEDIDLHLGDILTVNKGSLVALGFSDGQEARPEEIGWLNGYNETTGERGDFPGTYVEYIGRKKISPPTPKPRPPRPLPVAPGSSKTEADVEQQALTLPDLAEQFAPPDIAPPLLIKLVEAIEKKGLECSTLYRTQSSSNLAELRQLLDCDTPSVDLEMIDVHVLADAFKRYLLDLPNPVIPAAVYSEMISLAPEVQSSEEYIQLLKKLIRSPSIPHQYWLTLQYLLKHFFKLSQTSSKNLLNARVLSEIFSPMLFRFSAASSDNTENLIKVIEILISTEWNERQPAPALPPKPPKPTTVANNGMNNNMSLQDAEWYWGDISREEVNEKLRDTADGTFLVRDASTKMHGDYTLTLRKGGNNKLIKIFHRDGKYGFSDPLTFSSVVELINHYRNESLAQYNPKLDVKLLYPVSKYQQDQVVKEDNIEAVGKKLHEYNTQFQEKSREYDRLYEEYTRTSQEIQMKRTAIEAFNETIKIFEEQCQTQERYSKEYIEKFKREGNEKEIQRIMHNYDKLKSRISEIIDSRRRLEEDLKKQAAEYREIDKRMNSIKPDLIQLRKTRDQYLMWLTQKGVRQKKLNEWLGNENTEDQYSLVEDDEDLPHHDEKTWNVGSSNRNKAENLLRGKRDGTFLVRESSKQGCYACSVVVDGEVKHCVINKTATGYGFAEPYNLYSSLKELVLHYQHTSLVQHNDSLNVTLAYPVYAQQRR
p110γ, sequence (P48736 whole entry): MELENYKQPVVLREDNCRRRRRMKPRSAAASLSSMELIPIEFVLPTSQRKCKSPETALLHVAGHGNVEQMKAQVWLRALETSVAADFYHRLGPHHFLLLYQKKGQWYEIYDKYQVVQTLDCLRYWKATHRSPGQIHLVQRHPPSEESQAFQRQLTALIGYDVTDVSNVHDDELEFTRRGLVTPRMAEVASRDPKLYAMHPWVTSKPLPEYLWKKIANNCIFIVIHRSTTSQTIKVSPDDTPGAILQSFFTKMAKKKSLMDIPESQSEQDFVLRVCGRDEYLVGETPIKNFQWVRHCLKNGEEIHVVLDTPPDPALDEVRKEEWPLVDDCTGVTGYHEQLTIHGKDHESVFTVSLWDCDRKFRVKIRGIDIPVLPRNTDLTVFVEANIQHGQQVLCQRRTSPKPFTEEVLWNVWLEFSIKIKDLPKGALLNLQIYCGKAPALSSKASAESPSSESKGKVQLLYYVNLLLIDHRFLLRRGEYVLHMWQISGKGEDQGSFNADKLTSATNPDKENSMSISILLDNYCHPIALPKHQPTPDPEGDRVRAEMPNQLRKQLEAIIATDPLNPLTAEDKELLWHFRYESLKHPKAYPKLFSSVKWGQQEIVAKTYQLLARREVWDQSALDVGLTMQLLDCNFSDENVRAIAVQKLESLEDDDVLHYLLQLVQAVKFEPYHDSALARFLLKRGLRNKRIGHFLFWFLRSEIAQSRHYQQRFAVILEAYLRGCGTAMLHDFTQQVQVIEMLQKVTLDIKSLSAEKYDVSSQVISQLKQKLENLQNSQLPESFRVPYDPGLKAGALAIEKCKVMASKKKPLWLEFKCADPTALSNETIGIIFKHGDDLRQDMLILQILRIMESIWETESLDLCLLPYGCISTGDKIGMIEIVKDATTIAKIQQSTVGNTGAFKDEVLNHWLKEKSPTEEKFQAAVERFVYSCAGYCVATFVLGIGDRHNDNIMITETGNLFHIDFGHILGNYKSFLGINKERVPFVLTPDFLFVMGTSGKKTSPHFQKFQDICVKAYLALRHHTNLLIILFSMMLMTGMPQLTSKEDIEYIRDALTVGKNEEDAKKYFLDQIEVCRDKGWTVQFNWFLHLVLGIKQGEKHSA

SMILES | IC50 (p110α/p85α; read-out: PI3K α IC50) [µM] | IC50 (p110α/p85α; [1]) [µM] | further results
Nc1ncnc2ccc(-c3ccc4nccc(-c5ccncc5)c4c3)cc12 [compound 8] | < 10 | – | IC50 (p110γ; read-out: PI3K γ IC50): < 1 µM
Nc1nc2cc(-c3cc4nccc(-c5ccncc5)c4s3)ccc2o1 [compound 14] | < 10 | – | IC50 (p110γ; read-out: PI3K γ IC50): < 10 µM
Nc1noc2ccc(-c3ccc4nccc(-c5ccncc5)c4c3)cc12 [compound 18] | < 10 | – | IC50 (p110γ; read-out: PI3K γ IC50): < 10 µM
Nc1nc2cc(-c3c[nH]c4nccc(-c5ccncc5)c34)ccc2o1 [compound 25] | < 10 | – | IC50 (p110γ; read-out: PI3K γ IC50): < 10 µM
Nc1nc2cc(-c3ccc4nccc(NC5CCOCC5)c4c3)ccc2o1 [compound 32] | < 10 | – | IC50 (p110γ; read-out: PI3K γ IC50): < 10 µM
Nc1nc2cc(-c3ccc4ncn(C5CCOCC5)c4c3)ccc2o1 [compound 48] | < 10 | – | –
Nc1nc2cc(-c3ccc4ncc(N5CCOCC5)n4c3)ccc2o1 [compound 53] | < 10 | – | –
Nc1nc2cc(-c3ccc4ncn(C5CCOCC5)c(=O)c4c3)ccc2o1 [compound 55] | < 1 | – | –
Nc1nc2ccc(-c3ccc4ncn(C5CCOCC5)c(=O)c4c3)cc2o1 [compound 63] | < 10 | – | –
CC(=O)N1CCC(n2cnc3ccc(-c4ccc5oc(N)nc5c4)cc3c2=O)CC1 [compound 66] | < 10 | – | –
CS(=O)(=O)N1CCC(n2cnc3ccc(-c4ccc5oc(N)nc5c4)cc3c2=O)CC1 [compound 67] | < 1 | – | –
CN1CCN(c2nc3cc(-c4ccc5oc(N)nc5c4)ccc3c(=O)n2C)CC1 [compound 79] | < 10 | – | –
Cn1c(N2CCOCC2)nc2cc(-c3ccc4oc(N)nc4c3)ccc2c1=O [compound 80] | < 1 | – | –
Nc1nc2cc(-c3ccc4ncc(C(=O)N5CCOCC5)cc4c3)ccc2o1 [compound 97] | < 10 | – | –
Nc1nc2cc(-c3ccc4ncc(N5CCS(=O)(=O)CC5)nc4c3)ccc2o1 [compound 98] | < 0.1 | – | IC50 (p110γ; read-out: PI3K γ IC50): < 0.1 µM
CN1CCN(C(=O)c2cnc3ccc(-c4ccc5oc(N)nc5c4)nn23)CC1 [compound 104] | < 10 | – | IC50 (p110γ; read-out: PI3K γ IC50): < 10 µM
C[C@@H]1CN(C(=O)c2cnc3ccc(-c4ccc5oc(N)nc5c4)cn23)C[C@H](C)O1 [compound 106] | < 10 | – | IC50 (p110γ; read-out: PI3K γ IC50): < 10 µM
Nc1nc2cc(-c3ccc4ncc(C(=O)N5CCS(=O)(=O)CC5)n4c3)ccc2o1 [compound 107] | < 1 | – | IC50 (p110γ; read-out: PI3K γ IC50): < 10 µM
Nc1nc2ccc(-c3ccc4ncc(N5CCOCC5)nc4c3)cc2s1 [compound 114] | < 0.1 | – | IC50 (p110γ; read-out: PI3K γ IC50): < 1 µM
CN1CCN(C(=O)c2cnc3cnc(-c4ccc5oc(N)nc5c4)cn23)CC1 [compound 123] | < 10 | – | –
C[C@@H]1CN(c2cnc3ccc(-c4ccc5oc(N)nc5c4)cc3n2)C[C@H](C)O1 [compound 132] | < 1 | – | IC50 (p110γ; read-out: PI3K γ IC50): < 10 µM
CCN1CCN(C(=O)c2cnc3ccc(-c4ccc5oc(N)nc5c4)cn23)CC1 [compound 141] | < 1 | – | IC50 (p110γ; read-out: PI3K γ IC50): < 10 µM
CC1CN(C(=O)c2cnc3ccc(-c4ccc5oc(N)nc5c4)cn23)CC(C)N1 (centres unmarked) [compound 142] | < 10 | – | –
Nc1nc2cc(-c3ccc4ncc(-c5ccnc(N6CCOCC6)c5)nc4c3)ccc2o1 [compound 150] | < 1 | – | –
CN1CCN(C(=O)c2cnc3ccc(-c4ccc5oc(N)nc5c4)cc3n2)CC1 [compound 157] | < 10 | – | –
Nc1nc2cc(-c3ccc4ncc(C(=O)N5CCOCC5)nc4c3)ccc2o1 [compound 158] | < 10 | – | –
Nc1nc2cc(-c3ccc4ncc(C(=O)N5CCC(O)CC5)n4c3)ccc2o1 [compound 162] | < 1 | – | IC50 (p110γ; read-out: PI3K γ IC50): < 10 µM

SMILES | IC50 (p110α/p85α; read-out: PI3K α IC50) [µM] | IC50 (p110α/p85α; [1]) [µM] | further results
Nc1nc2cc(-c3ccc4ncc(-c5ccc(N6CCOCC6)nc5)nc4c3)ccc2o1 [compound 167] | < 10 | – | –
Nc1nc2cc(-c3ccc4ncc(N5CCCCC5)nc4c3)ccc2o1 [compound 175] | < 0.1 | – | IC50 (p110γ; read-out: PI3K γ IC50): < 10 µM
Cc1cn(-c2cnc3ccc(-c4ccc5oc(N)nc5c4)cc3n2)cn1 [compound 177] | < 0.1 | – | IC50 (p110γ; read-out: PI3K γ IC50): < 1 µM
Nc1nc2cc(-c3ccc4ncc(-c5ccccc5)nc4c3)ccc2o1 [compound 180] | < 1 | – | –
Cc1ncccc1-c1cnc2ccc(-c3ccc4oc(N)nc4c3)cc2n1 [compound 185] | < 1 | – | –
Cc1ccc(-c2cnc3ccc(-c4ccc5oc(N)nc5c4)cc3n2)cn1 [compound 194] | < 0.1 | – | IC50 (p110γ; read-out: PI3K γ IC50): < 0.1 µM
Nc1nc2cc(-c3ccc4ncn(C5CCC5)c(=O)c4c3)ccc2o1 [compound 205] | – | < 0.1 | –
CC(C)n1cnc2ccc(-c3ccc4oc(N)nc4c3)cc2c1=O [compound 206] | – | < 0.1 | IC50 (p110γ; [2]): < 10 µM
Nc1ncc(-c2cnc3ccc(-c4ccc5oc(N)nc5c4)cc3n2)cn1 [compound 210] | – | < 1 | –
Cc1ccn(C2CCN(c3cnc4ccc(-c5ccc6oc(N)nc6c5)cc4n3)CC2)n1 [compound 223] | – | < 0.1 | IC50 (p110γ; [2]): < 1 µM
CCN(CC)CCn1cnc2ccc(-c3ccc4oc(N)nc4c3)cc2c1=O [compound 224] | – | < 10 | –
Nc1ncc(-c2ccc3oc(N)nc3c2)cn1 [compound 233] | – | – | IC50 (p110γ; [2]): < 10 µM
CC(=O)Nc1nc2cc(-c3ccc4oc(N)nc4c3)ccc2s1 [compound 250] | – | – | IC50 (p110γ; [2]): < 0.1 µM
Nc1nc2cc(-c3ccc4ncn(C5CC5)c(=O)c4c3)ccc2o1 [compound 254] | – | < 1 | IC50 (p110γ; [2]): < 1 µM
Nc1nc2cc(-c3ccc4ncn(C5CCCC5)c(=O)c4c3)ccc2o1 [compound 256] | – | < 10 | –
NC(=O)[C@@H]1CCCN1C(=O)c1cnc2ccc(-c3ccc4oc(N)nc4c3)cn12 [compound 259] | – | < 1 | IC50 (p110γ; [2]): < 10 µM
NC(=O)[C@H]1CCCN1C(=O)c1cnc2ccc(-c3ccc4oc(N)nc4c3)cn12 [compound 260] | – | < 1 | IC50 (p110γ; [2]): < 10 µM
CN1CCN(CCn2cnc3ccc(-c4ccc5oc(N)nc5c4)cc3c2=O)CC1 [compound 280] | – | < 10 | –
Nc1nc2cc(-c3ccc4ncn(CCCN5CCOCC5)c(=O)c4c3)ccc2o1 [compound 290] | – | < 1 | –
CN1CCN(CCCn2cnc3ccc(-c4ccc5oc(N)nc5c4)cc3c2=O)CC1 [compound 291] | – | < 1 | –
CN(C)CCn1cnc2ccc(-c3ccc4oc(N)nc4c3)cc2c1=O [compound 292] | – | < 10 | –
Cc1ccn(C2CCN(C(=O)c3cnc4ccc(-c5ccc6oc(N)nc6c5)cn34)CC2)n1 [compound 297] | – | < 1 | IC50 (p110γ; [2]): < 10 µM
CN(C)C1CCN(C(=O)c2cnc3ccc(-c4ccc5oc(N)nc5c4)cn23)CC1 [compound 304] | – | < 1 | –
Nc1nc2ccc(-c3ccc4nnc(C(=O)N5CCCC5)n4c3)cc2o1 [compound 305] | – | < 10 | –
Cc1nc(NC(=O)N2CCC[C@H]2C(N)=O)sc1-c1ccc2oc(N)nc2c1 [compound 311] | – | < 1 | –
Nc1nc2cc(-c3ccc4ncc(N5CCC(n6cccn6)CC5)nc4c3)ccc2o1 [compound 337] | – | < 0.1 | IC50 (p110γ; [2]): < 1 µM
Nc1nc2cc(-c3ccc4ncc(C(=O)N5CC5)n4c3)ccc2o1 [compound 340] | – | < 1 | IC50 (p110γ; [2]): < 1 µM

SMILES | IC50 (p110α/p85α; read-out: PI3K α IC50) [µM] | IC50 (p110α/p85α; [1]) [µM] | further results
Cc1cc2oc(N)nc2cc1-c1ccc2ncc(N3CC(N4CCOCC4)C3)nc2c1 [compound 353] | – | < 10 | –
Nc1nc2cc(-c3ccc4ncc(C(=O)N5CCOCC5)n4c3)c(Cl)cc2o1 [compound 370] | – | < 10 | –
Cc1c(-c2ccc3oc(N)nc3c2)ccc2ncc(N3CC(N4CCOCC4)C3)nc12 [compound 383] | – | < 1 | –
Cc1c(-c2ccc3oc(N)nc3c2)ccc2ncc(N3CC(N4CCNCC4)C3)nc12 [compound 386] | – | < 0.1 | –
CCN1CCN(c2cnc3ccc(-c4ccc5oc(N)nc5c4)cc3n2)C(=O)C1 [compound 391] | – | < 10 | –
Nc1nc2cc(-c3ccc4ncc(N5CCN(CC6CC6)CC5=O)nc4c3)ccc2o1 [compound 393] | – | < 10 | –
CC(=O)Nc1cc2ccc(-c3cc(F)c4oc(N)nc4c3)cn2n1 [compound 401] | – | – | IC50 (p110γ; read-out: PI3K γ In Vitro IC50): < 10 µM
C[C@H]1CN(c2cc3cc(-c4ccc5oc(N)nc5c4)ccc3nc2N)CCN1 [compound 403] | – | – | IC50 (p110α/p85α; read-out: PI3K α In Vitro IC50): < 10 µM
O=C(c1cnc2ccc(-c3ccc4oc(NC5CC5)nc4c3)cn12)N1CCOCC1 [compound 409] | – | – | IC50 (p110α/p85α; read-out: PI3K α In Vitro IC50): < 10 µM
Nc1ncc(-c2ccc3ncc(C(=O)N4CCOCC4)n3c2)cc1C(F)(F)F [compound 410] | – | – | IC50 (p110α/p85α; read-out: PI3K α In Vitro IC50): < 10 µM
Nc1nc2nc(-c3ccc4ncc(C(=O)N5CCOCC5)n4c3)ccc2o1 [compound 412] | – | – | IC50 (p110α/p85α; read-out: PI3K α In Vitro IC50): < 10 µM
COc1ncc(-c2ccc3ncc(C(=O)N4CCOCC4)n3c2)cc1N [compound 414] | – | – | IC50 (p110α/p85α; read-out: PI3K α In Vitro IC50): < 10 µM
Nc1cc(-c2ccc3ncc(C(=O)N4CCOCC4)n3c2)cnc1Cl [compound 415] | – | – | IC50 (p110α/p85α; read-out: PI3K α In Vitro IC50): < 10 µM
Nc1nc2cc(-c3cc(F)c4ncc(C(=O)N5CCOCC5)n4c3)ccc2o1 [compound 438] | – | – | IC50 (p110α/p85α; read-out: PI3K α In Vitro IC50): < 10 µM
Nc1nc2ccc(-c3cc(F)c4ncc(C(=O)N5CCOCC5)n4c3)cc2o1 [compound 439] | – | – | IC50 (p110α/p85α; read-out: PI3K α In Vitro IC50): < 10 µM
COc1ccc(-c2ccc3ncc(C(=O)N4CCOCC4)n3c2)cc1S(=O)(=O)Nc1ccccc1 [compound 444] | – | – | IC50 (p110α/p85α; read-out: PI3K α In Vitro IC50): < 10 µM
CN1CCN(n2cnc3ccc(-c4ccc5oc(N)nc5c4)cc3c2=O)CC1 [compound 446] | – | – | IC50 (p110α/p85α; read-out: PI3K α In Vitro IC50): < 1 µM
O=C(c1cnc2ccc(-c3cncc(S(=O)(=O)Nc4ccccc4)c3)cn12)N1CCOCC1 [compound 447] | – | – | IC50 (p110α/p85α; read-out: PI3K α In Vitro IC50): < 10 µM
CNS(=O)(=O)c1cncc(-c2ccc3ncc(C(=O)N4CCOCC4)n3c2)c1 [compound 450] | – | – | IC50 (p110α/p85α; read-out: PI3K α In Vitro IC50): < 10 µM
CS(=O)(=O)Nc1cc(-c2ccc3ncc(C(=O)N4CCOCC4)n3c2)ccc1Cl [compound 460] | – | – | IC50 (p110α/p85α; read-out: PI3K α In Vitro IC50): < 10 µM
Nc1nsc2c(-c3ccc4ncc(C(=O)N5CCOCC5)n4c3)cccc12 [compound 474] | – | – | IC50 (p110α/p85α; read-out: PI3K α In Vitro IC50): < 10 µM
Nc1nc2cccc(-c3ccc4ncc(C(=O)N5CCOCC5)n4c3)c2s1 [compound 485] | – | – | IC50 (p110α/p85α; read-out: PI3K α In Vitro IC50): < 10 µM
Nc1nsc2cc(-c3ccc4ncc(C(=O)N5CCOCC5)n4c3)ccc12 [compound 489] | – | – | IC50 (p110α/p85α; read-out: PI3K α In Vitro IC50): < 10 µM
O=C(c1cnc2ccc(-c3cccc4[nH]ncc34)cn12)N1CCOCC1 [compound 506] | – | – | IC50 (p110α/p85α; read-out: PI3K α In Vitro IC50): < 0.1 µM
CC1(C)COCCN1C(=O)c1cnc2ccc(-c3ccc4oc(N)nc4c3)cn12 [compound 514] | – | – | IC50 (p110α/p85α; read-out: PI3K α In Vitro IC50): < 1 µM
O=C(c1cnc2ccc(-c3cnc(Cl)c4[nH]ncc34)cn12)N1CCOCC1 [compound 516] | – | – | IC50 (p110α/p85α; read-out: PI3K α In Vitro IC50): < 1 µM
